From patent publication US20070026408A1, “Materials and methods for analysis of atp-binding cassette transporter gene expression” (priority 2003, published 2007)
Where a name gives a salt, the structure may show the parent alone.

Columns and labels:
Assay type in all cases: cell-based, human
Settings in all cases: HepG2, doxorubicin HCl 25 nM, standard 11
abcA3 = experiment: DT1 microarray drug screening, drug-treated HepG2: abcA3
Protocol: (§1) The labelled cDNA target preparation was thawed and the 150 μl added to 850 ul hybridisation buffer (500 mM sodium Phosphate pH 6.0, 1% SDS, 1% BSA, 1 mM EDTA) in a 1.5 ml microtube and heated at 95° C. for 10 min.

abcA7 = experiment: DT1 microarray drug screening, drug-treated HepG2: abcA7
Protocol: as §1

abcA9 = experiment: DT1 microarray drug screening, drug-treated HepG2: abcA9
Protocol: as §1

abcB1 = experiment: DT1 microarray drug screening, drug-treated HepG2: abcB1
Protocol: as §1

abcB2 = experiment: DT1 microarray drug screening, drug-treated HepG2: abcB2
Protocol: as §1

abcB9 = experiment: DT1 microarray drug screening, drug-treated HepG2: abcB9
Protocol: as §1

abcC4 = experiment: DT1 microarray drug screening, drug-treated HepG2: abcC4
Protocol: as §1

abcC7 = experiment: DT1 microarray drug screening, drug-treated HepG2: abcC7
Protocol: as §1

abcC11 = experiment: DT1 microarray drug screening, drug-treated HepG2: abcC11
Protocol: as §1

abcC12 = experiment: DT1 microarray drug screening, drug-treated HepG2: abcC12
Protocol: as §1

abcD4 = experiment: DT1 microarray drug screening, drug-treated HepG2: abcD4
Protocol: as §1

abcF1 = experiment: DT1 microarray drug screening, drug-treated HepG2: abcF1
Protocol: as §1

abcG1 = experiment: DT1 microarray drug screening, drug-treated HepG2: abcG1
Protocol: as §1

abcG5 = experiment: DT1 microarray drug screening, drug-treated HepG2: abcG5
Protocol: as §1

abcG8 = experiment: DT1 microarray drug screening, drug-treated HepG2: abcG8
Protocol: as §1

Compound: COc1cccc2c1C(=O)c1c(O)c3c(c(O)c1C2=O)C[C@@](O)(C(=O)CO)C[C@@H]3O[C@H]1C[C@H](N)[C@H](O)[C@H](C)O1 [dox, doxorubicin HCl]
- relative level of abcA3 gene expression (abcA3; 2 h): 8.071
- relative level of abcA3 gene expression (abcA3; 4 h): 4.291
- relative level of abcA3 gene expression (abcA3; 8 h): 5.179
- relative level of abcA7 gene expression (abcA7; 2 h): 1.842
- relative level of abcA7 gene expression (abcA7; 4 h): 0.933
- relative level of abcA7 gene expression (abcA7; 8 h): 0.9351
- relative level of abcA9 gene expression (abcA9; 2 h): 7.825
- relative level of abcA9 gene expression (abcA9; 4 h): 4.817
- relative level of abcA9 gene expression (abcA9; 8 h): 5.72
- relative level of abcB1 gene expression (abcB1; 2 h): 6.735
- relative level of abcB1 gene expression (abcB1; 4 h): 3.865
- relative level of abcB1 gene expression (abcB1; 8 h): 4.759
- relative level of abcB2 gene expression (abcB2; 2 h): 5.067
- relative level of abcB2 gene expression (abcB2; 4 h): 3.715
- relative level of abcB2 gene expression (abcB2; 8 h): 4.008
- relative level of abcB9 gene expression (abcB9; 2 h): 8.388
- relative level of abcB9 gene expression (abcB9; 4 h): 4.897
- relative level of abcB9 gene expression (abcB9; 8 h): 5.523
- relative level of abcC4 gene expression (abcC4; 2 h): 2.612
- relative level of abcC4 gene expression (abcC4; 4 h): 2.09
- relative level of abcC4 gene expression (abcC4; 8 h): 2.286
- relative level of abcC7 gene expression (abcC7; 2 h): 7.481
- relative level of abcC7 gene expression (abcC7; 4 h): 4.5794
- relative level of abcC7 gene expression (abcC7; 8 h): 5.093
- relative level of abcC11 gene expression (abcC11; 2 h): 7.608
- relative level of abcC11 gene expression (abcC11; 4 h): 4.384
- relative level of abcC11 gene expression (abcC11; 8 h): 5.056
- relative level of abcC12 gene expression (abcC12; 2 h): 5.226
- relative level of abcC12 gene expression (abcC12; 4 h): 3.532
- relative level of abcC12 gene expression (abcC12; 8 h): 3.976
- relative level of abcD4 gene expression (abcD4; 2 h): 4.361
- relative level of abcD4 gene expression (abcD4; 4 h): 3.103
- relative level of abcD4 gene expression (abcD4; 8 h): 3.194
- relative level of abcF1 gene expression (abcF1; 2 h): 2.485
- relative level of abcF1 gene expression (abcF1; 4 h): 2.87
- relative level of abcF1 gene expression (abcF1; 8 h): 2.662
- relative level of abcG1 gene expression (abcG1; 2 h): 5.472
- relative level of abcG1 gene expression (abcG1; 4 h): 3.555
- relative level of abcG1 gene expression (abcG1; 8 h): 3.839
- relative level of abcG5 gene expression (abcG5; 2 h): 2.201
- relative level of abcG5 gene expression (abcG5; 4 h): 1.764
- relative level of abcG5 gene expression (abcG5; 8 h): 1.752
- relative level of abcG8 gene expression (abcG8; 2 h): 4.697
- relative level of abcG8 gene expression (abcG8; 4 h): 2.811
- relative level of abcG8 gene expression (abcG8; 8 h): 2.9413
